{"source": "patent US5468730A", "about": "“Methods for the treatment of non-IgE-mediated diseases” (Dura Pharmaceuticals, Inc., priority 1992, dated 1995)", "key": {"[1]": {"test_system": "sheep erythrocyte (SRBC)-induced DTH reactions", "test": "Sheep erythrocyte (SRBC)-induced DTH footpad swelling in mice", "assay_type": "in vivo, female Balb/C mice", "conditions": "indomethacin 1.0 mg/kg on day 4 (positive control); footpad volume about 24 h after challenge"}, "[2]": {"test_system": "carrageenan-induced inflammation", "test": "Carrageenan-induced footpad edema in mice", "assay_type": "in vivo, female Balb/C mice", "description": "In order to examine the ability of pentigetide to inhibit carrageenan-induced inflammation, female Balb/C mice were injected with 0.025 ml of 1.0% carrageenan solution (type 1x carrageenan: Sigma No. C-1013, Lot No. 86F-0698) or saline in the right hind footpad 5 minutes after intravenous tail vein injection of 0.2 ml pentigetide (1.0 mg/kg) or saline solution."}, "[3]": {"test_system": "Tetanus toxoid-induced DTH reactions", "set-up": "species or system female Balb/C mice", "conditions": "mouse, in vivo"}, "[4]": {"test_system": "immune complex-induced colitis", "test": "Immune complex-mediated ulcerative colitis model (formalin + IgG immune complexes) in mice", "assay_type": "in vivo, male BKA mice (outbred Swiss albino)", "description": "A mouse model of intestinal inflammation was employed wherein the efficacy of pentigetide in reducing inflammation induced by formalin and complement-fixing IgG immune complexes was measured. This model is particularly useful as a model of human ulcerative colitis and shares many clinical and histological functions of the human disease including sensitivity to glucocorticoids, sulfasalazine and 5-aminosalicylic acid (see L. P. Walsh, et al., British J. Pharm. 91:294 (1987); A. Blackham, et al., British J. Pharm. 89:694 (1986); L. D. Walsh and I. J. Zeitlin, British J. Pharm. 92:741 (1987)). The mouse model of intestinal inflammation used in these studies is induced by the exposure of the animals to chemicals which are known to trigger inflammatory processes in both animals and humans. […]\nColonic tissue water content was determined by tissue weight loss on drying of colonic tissues. […]\nThe response to immune complex alone was determined quantitatively by subtracting the mean value in group B from the mean value in group C. An estimate of the percentage reduction in this response produced by the drug was calculated as: [formula] […] Statistical significance was determined using the non-parametric Mann-Whitney U-test. […]"}, "[5]": {"test_system": "binding of IgE to lymphoblastoid tissue culture cells", "conditions": "two trials; reported in U.S. Pat. No. 4,161,522; cited from earlier work"}, "[6]": {"test_system": "chronic idiopathic urticaria (non-IgE-mediated)", "conditions": "human, in vivo"}}, "note": "Where “and” joins values, the source holds several entries; their conditions need not be identical. Equal values may be shown once. No end group written: not given here.", "data": [{"molecule": "COc1ccc2c(c1)c(CC(=O)O)c(C)n2C(=O)c1ccc(Cl)cc1", "note": "[Indomethacin, indomethacin]", "values": [{"measurement": "inhibition", "setting": "[1]", "result": 43, "unit": "%"}, {"measurement": "Percent Inhibition", "setting": "[2]; 1.0 hours after carrageenan injection, indomethacin 10 mg/kg s.c. 24 hours prior to carrageenan", "result": -35, "unit": "%"}, {"measurement": "Percent Inhibition", "setting": "[2]; 2.0 hours after carrageenan injection, indomethacin 10 mg/kg s.c.", "result": -60, "unit": "%"}, {"measurement": "Percent Inhibition", "setting": "[2]; 4.0 hours after carrageenan injection, indomethacin 10 mg/kg s.c.", "result": -39, "unit": "%"}, {"measurement": "Percent Inhibition", "setting": "[2]; 6.0 hours after carrageenan injection, indomethacin 10 mg/kg s.c.", "result": -47, "unit": "%"}, {"measurement": "inhibition", "setting": "[3]", "result": 45, "unit": "%"}]}, {"molecule": "C[C@]12C=CC(=O)C=C1CC[C@@H]1[C@@H]2[C@@H](O)C[C@@]2(C)[C@H]1CC[C@]2(O)C(=O)CO", "note": "[prednisolone]", "values": [{"measurement": "reduction of colonic edema", "setting": "[4]; prednisolone 5.0 mg/kg i.p. for three days prior to inflammation induction and daily thereafter, p<0.01", "result": 86.2, "unit": "%"}, {"measurement": "reduction of colonic edema (printed in the colitic sign score paragraph)", "setting": "[4]; prednisolone 5.0 mg/kg i.p., p<0.001", "result": 93.8, "unit": "%"}]}, {"molecule": "Asn-Ser-Asn-Pro-Arg (NSNPR; printed: Asn-Ser-Asn-Pro-Arg) [peptide reported in U.S. Pat. No. 4,161,522]", "values": [{"measurement": "activity: ability to block binding of IgE to lymphoblastoid tissue culture cells", "setting": "[5]", "result": "lower activity"}]}, {"molecule": "Asn-Ser-Asp-Pro-Arg (NSDPR; printed: Asn-Ser-Asp-Pro-Arg) [peptide reported in U.S. Pat. No. 4,161,522]", "values": [{"measurement": "activity: ability to block binding of IgE to lymphoblastoid tissue culture cells", "setting": "[5]", "result": "lower activity"}]}, {"molecule": "DSDPR [pentigetide, Asp-Ser-Asp-Pro-Arg]", "values": [{"measurement": "side effects from the treatment", "setting": "[6]", "result": "did not experience any side effects"}]}, {"molecule": "[-Cys-Ala-Asn-Ser-Asn-Pro-Arg]2", "values": [{"measurement": "activity: ability to block binding of IgE to lymphoblastoid tissue culture cells", "setting": "[5]", "result": "9% and 12%"}]}]}
